Experimental data: patent US20230295152A1 (SENDA BIOSCIENCES, INC., priority 2019, published 2023)

Tests used:
CYP2D6 = target: T1, CYP2D6 (Homo sapiens, UniProt P10635); assay: CYP Inhibition Assay in human liver microsomes, CYP2D6; format: in vitro ADME; details: pH 7.4
T1 construct: from tissue; host or cells: human liver microsomes (HLM)
Experimental: Stock solutions of test compounds were prepared in DMSO at the concentrations of 10 mM. Stock solution was diluted to 2 mM with acetonitrile. The final concentration of test compounds was 10 μM. For the stock solution preparation, if the positive control could not be well dissolved in the mixture of DMSO and acetonitrile (1:4) at the highest concentration, another mixture of acetonitrile and DMSO, the mixture of acetonitrile and H2O or DMSO will be used to dissolve the compound.
The substrate solutions are stored in a −20° C. freezer and warmed to room temperature prior to use.
Preparation of Phosphate Buffer (100 mmol/L, pH 7.4): To prepare the Solution A, 7.098 g of disodium hydrogen phosphate were weighed out and added into 500 mL of pure water, then sonicated to dissolve the content. To prepare the Solution B, 3.400 g of potassium dihydrogen phosphate were weighed out and added into 250 mL of pure water, then sonicated to dissolve the content. Solution A was placed on a stirrer and slowly Solution B was added into Solution A until the pH reached 7.4. Preparation of 10 mmol/L NADPH Solution: NADPH was dissolved at 8.334 mg/mL in phosphate buffer; the solution was freshly prepared prior to use.
The master solution was prepared according to Table 45. The incubation was carried out in 96 deep well plates. The following volumes were dispensed into each well of the incubation plate: 179 μL of the substrate and HLM mixture in phosphate buffer, 1 μL of the compound working solution, or vehicle (mixture of DMSO and acetonitrile (1:4)). The incubation plate was placed into the water bath and pre-warmed at 37° C. for 15 minutes before the reactions was started by the addition of 20 μL of 10 mmol/L NADPH solution in phosphate buffer. After the addition of NADPH, the incubation plate was incubated at 37° C. for corresponding time. The assay was performed in duplicate.
The reaction was quenched by the addition of 1.5 volume (300 μL) of cold acetonitrile containing 3% formic acid and internal standards (200 nM Labetalol, 200 nM Alprazolam and 200 nM tolbutamide). The plate was centrifuged at 3,220 g for 40 minutes. 100 μL of the supernatant was transferred to a new plate. The supernatant was diluted with 100 μL pure water. The samples were mixed well and analyzed using UPLC/MS/MS.
Data Analysis: The automatic peak integration areas are checked for all the samples. The Analyte Peak Area and Internal Standard Peak Area are exported into excel spreadsheet. The inhibition of each P450 enzyme in human liver microsomes is measured as the percentage decrease in the activity of marker metabolite formation compared to non-inhibited controls (=100% activity).
The percentage of remaining activity was calculated as follows:
Area Ratio=Peak Area Analyte/Peak Area Internal Standard Remaining Activity (%)=Area Ratio test compound/Area Ratio vehicle*100% Inhibition %=100-Remaining Activity (%)

hERG channels = target: T2, hERG channels (Homo sapiens, UniProt Q12809); assay: hERG Inhibition Assay, patch clamp in hERG stably expressed HEK 293 cell line; format: cell-based; details: read-out: hERG channel: IC50
T2 construct: host or cells: HEK 293
Experimental: hERG stably expressed HEK 293 cell line (Cat #K1236) was purchased from Invitrogen. The cells are cultured in 85% DMEM, 10% dialyzed FBS, 0.1 mM NEAA, 25 mM HEPES, 100 U/mL Penicillin-Streptomycin and 5 μg/mL Blasticidin and 400 μg/mL Geneticin. Cells are split using TrypLE™ Express about three times a week and maintained between ˜40% to ˜80% confluence. Before the assay, the cells were onto the coverslips at 5×10^5 cells/per 6 cm cell culture dish and induced with doxycycline at 1 μg/mL for 48 hours.
External solution (in mM): 132 NaCl, 4 KCl, 3 CaCl2), 0.5 MgCl2, 11.1 glucose, and 10 HEPES (pH adjusted to 7.35 with NaOH). Internal solution (in mM): 140 KCl, 2 MgCl2, 10 EGTA, 10 HEPES and 5 MgATP (pH adjusted to 7.35 with KOH). Working solution preparation for test compound: test compounds were initially prepared in DMSO with final concentration of 10 mM as stock solution. Stock solution of each compound was serial-diluted by ratio of 1:3 with DMSO to prepare additional 3 intermediate solutions including 3.33, 1.11 and 0.37 mM.
Before performing the hERG assay, the working solutions were prepared by dilution of 10, 3.33, 1.11, and 0.37 mM intermediate solutions in 1000 folds using extracellular solution, while 30 μM working solution was prepared by 333.333-folds dilution of 10 mM DMSO stock. so that the final concentration of working solution was 30, 10, 3.33, 1.11 and 0.37 μM. The final DMSO concentration in working solutions was maintained in range of 0.1-0.3% (v/v).
Experimental procedure: the coverslip was removed from the cell culture dish and placed it on the microscope stage in bath chamber. A desirable cell was located using the ×10 objective. The tip of the electrode was located under the microscope using the ×10 objective by focusing above the plane of the cells. Once the tip was in focus, the electrode was advanced downwards towards the cell using the coarse controls of the manipulator, while simultaneously moving the objective to keep the tip in focus. When directly over the cell, the fine controls of the manipulator were used to approach the surface of the cell in small steps, by using the ×40 objective. Gentle suction was applied through the side-port of the electrode holder to form a gigaohm seal.
Cfast was used to remove the capacity current that is in coincidence with the voltage step. The whole cell configuration was obtained by applying repetitive, brief, strong suction until the membrane patch has ruptured. membrane potential was set to −60 mV at this point to ensure that hERG channels were not open. The spikes of capacity current was then cancelled using the Cslow on the amplifier.
Holding potential was set to −90 mV for 500 ms; current was recorder at 20 kHz and filtered at 10 kHz. Leaking current was tested at −80 mV for 500 ms.
The hERG current was elicited by depolarizing at +30 mV for 4.8 seconds and then the voltage was taken back to −50 mV for 5.2 seconds to remove the inactivation and observe the deactivating tail current. The maximum amount of tail current size was used to determine hERG current amplitude. Current was recorded for 120 seconds to assess current stability. Only stable cells with recording parameters above threshold were proceeded with further drug administrations. Vehicle control was applied to the cells to establish the baseline. […] For dose response testing, 5 doses of test compound was applied to the cells cumulatively from low to high concentrations. In order to ensure the good performance of cultured cells and operations, the positive control, Dofetilide, with 5 doses was also used to test the same batch of cells.
The following criteria were used to determine data acceptability: initial seal resistance>1 GΩ; leak currents<50% of the control peak tail currents at any time; the peak tail amplitude>300 pA; membrane resistance Rm>500 MΩ; access resistance (Ra)<15 MΩ; apparent run-down of peak current<2.5% per min. […]

T2 sequence (Q12809 whole entry): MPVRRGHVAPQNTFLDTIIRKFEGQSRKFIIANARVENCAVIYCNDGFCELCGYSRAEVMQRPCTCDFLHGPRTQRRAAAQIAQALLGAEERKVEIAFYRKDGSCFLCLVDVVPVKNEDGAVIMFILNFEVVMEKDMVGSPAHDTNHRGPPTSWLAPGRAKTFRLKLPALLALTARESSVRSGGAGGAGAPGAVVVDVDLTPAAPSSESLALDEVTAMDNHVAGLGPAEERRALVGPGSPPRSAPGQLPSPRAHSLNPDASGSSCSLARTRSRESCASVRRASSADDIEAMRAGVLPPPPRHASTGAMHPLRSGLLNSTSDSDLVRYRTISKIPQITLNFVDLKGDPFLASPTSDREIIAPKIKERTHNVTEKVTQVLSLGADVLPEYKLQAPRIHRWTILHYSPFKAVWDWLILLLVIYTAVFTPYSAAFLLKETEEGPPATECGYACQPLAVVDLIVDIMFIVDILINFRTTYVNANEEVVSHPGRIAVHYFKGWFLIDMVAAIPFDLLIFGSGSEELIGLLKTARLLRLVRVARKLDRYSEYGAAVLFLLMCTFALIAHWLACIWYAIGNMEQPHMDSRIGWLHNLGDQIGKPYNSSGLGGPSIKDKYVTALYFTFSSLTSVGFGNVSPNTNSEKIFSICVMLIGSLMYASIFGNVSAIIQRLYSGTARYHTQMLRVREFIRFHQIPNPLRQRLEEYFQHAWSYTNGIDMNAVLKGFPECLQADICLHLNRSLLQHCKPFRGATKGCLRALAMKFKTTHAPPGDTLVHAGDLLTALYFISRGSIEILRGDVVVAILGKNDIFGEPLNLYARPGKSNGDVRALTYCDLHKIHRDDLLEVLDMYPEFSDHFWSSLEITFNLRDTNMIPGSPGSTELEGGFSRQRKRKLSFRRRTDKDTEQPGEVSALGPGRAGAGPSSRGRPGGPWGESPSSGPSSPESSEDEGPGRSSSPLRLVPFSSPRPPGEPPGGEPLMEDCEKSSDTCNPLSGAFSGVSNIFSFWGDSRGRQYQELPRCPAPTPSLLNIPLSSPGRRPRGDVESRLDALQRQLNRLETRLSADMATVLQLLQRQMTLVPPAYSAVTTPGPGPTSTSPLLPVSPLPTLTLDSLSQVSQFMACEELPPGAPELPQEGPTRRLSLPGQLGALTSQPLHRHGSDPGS
T1 sequence (P10635 whole entry): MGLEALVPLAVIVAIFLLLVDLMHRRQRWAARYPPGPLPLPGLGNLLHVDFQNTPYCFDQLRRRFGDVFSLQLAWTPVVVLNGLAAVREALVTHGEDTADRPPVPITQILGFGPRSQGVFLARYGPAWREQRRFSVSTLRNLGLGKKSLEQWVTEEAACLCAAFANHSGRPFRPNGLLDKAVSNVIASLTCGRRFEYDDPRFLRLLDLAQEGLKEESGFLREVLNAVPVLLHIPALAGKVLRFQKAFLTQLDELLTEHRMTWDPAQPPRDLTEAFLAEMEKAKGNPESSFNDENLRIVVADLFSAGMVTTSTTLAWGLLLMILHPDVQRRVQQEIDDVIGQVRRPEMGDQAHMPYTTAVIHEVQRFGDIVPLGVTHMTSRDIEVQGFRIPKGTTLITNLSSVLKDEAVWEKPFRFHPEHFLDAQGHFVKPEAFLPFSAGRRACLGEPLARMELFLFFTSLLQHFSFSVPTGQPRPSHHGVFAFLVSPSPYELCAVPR

SMILES	inhibition at 10 µM (CYP2D6)	IC50 (hERG channels)
C[C@@H](CO)n1cnc2c(-c3cccnc3)nc(-c3ccc(C(F)(F)F)cn3)cc2c1=O [Compound 46, (S)-3-(1-hydroxypropan-2-yl)-8-(pyridin-3-yl)-6-(5-(trifluoromethyl)pyridin-2-yl)pyrido[3,4-d]pyrimidin-4(3H)-one]	7.43%	8.63 µM
C[C@@H](CO)n1cnc2c(-c3cnn(C)c3)nc(-c3ccc(C(F)(F)F)nc3)cc2c1=O [Compound 68]	10.9%	> 30 µM
O=c1c2cc(-c3ccc(Cl)cc3)nc(-c3cccnc3)c2ncn1[C@H]1COC[C@@H]1O [Compound 125, 6-(4-chlorophenyl)-3-((3S,4R)-4-hydroxytetrahydrofuran-3-yl)-8-(pyridin-3-yl)pyrido[3,4-d]pyrimidin-4(3H)-one]	20.6%	7.67 µM
CC(C)(O)Cn1cnc2c(-n3ccnc3)nc(-c3ccc(C(F)(F)F)cn3)cc2c1=O [Compound 160, 3-(2-hydroxy-2-methylpropyl)-8-(1H-imidazol-1-yl)-6-(5-(trifluoromethyl)pyridin-2-yl)pyrido[3,4-d]pyrimidin-4(3H)-one]		11.5 µM
C[C@H](n1cnc2c(-c3cnn(C)c3)nc(-c3ccc(Cl)cc3)cc2c1=O)C(C)(C)O [Compound 30]	11.2%	> 30 µM
CC(C)(O)Cn1cnc2c(-c3cccnc3)nc(-c3ccc(C(F)(F)F)nc3)cc2c1=O [Compound 9]	7.19%	12.1 µM
Cn1cc(-c2nc(-c3ccc(C(F)(F)F)nc3)cc3c(=O)n(CC(C)(C)O)cnc23)cn1 [Compound 60]		> 30 µM
C[C@@H](CO)n1cnc2c(-c3cccc(F)c3)nc(-c3ccc(Cl)cc3)cc2c1=O [Compound 7]	6.78%	> 30 µM
C[C@@H](CO)n1cnc2c(-c3cnn(C)c3)nc(-c3ccc(Cl)cc3)cc2c1=O [Compound 27]	8.96%	> 10 µM
C[C@@H](CO)n1cnc2c(-c3cccnc3)nc(-c3ccc(C4CC4)nc3)cc2c1=O [Compound 74]	7.27%	4.84 µM

Second part, led by results:

inhibition at 10 µM (CYP2D6)	SMILES	IC50 (hERG channels)
8.7%	Cn1cc(-c2nc(-c3ccc(C(F)(F)F)cn3)cc3c(=O)n(CC(C)(C)O)cnc23)cn1 [Compound 103, 3-(2-hydroxy-2-methylpropyl)-8-(1-methyl-1H-pyrazol-4-yl)-6-(5-(trifluoromethyl)pyridin-2-yl)pyrido[3,4-d]pyrimidin-4(3H)-one]	> 10 µM
15.6%	CC(C)(O)Cn1cnc2c(-c3cccnc3)nc(-c3ccc(C(F)(F)F)cc3)cc2c1=O [Compound 16]	4.31 µM
8.45%	C[C@@H](CO)n1cnc2c(-c3cccnc3)nc(-c3ccc(C(F)(F)F)nc3)cc2c1=O [Compound 12]	> 10 µM
8%	O=c1c2cc(-c3ccc(C(F)(F)F)nc3)nc(-c3cccnc3)c2ncn1[C@@H]1COC[C@H]1O [Compound 79]	> 30 µM
12.1%	CC(C)(O)Cn1cnc2c(-c3cccnc3)nc(-c3ccc(Cl)cc3)cc2c1=O [Compound 18]	5.28 µM
2.73%	CC(C)(O)Cn1cnc2c(-c3cccnc3)nc(-c3ccc(C(F)(F)F)cn3)cc2c1=O [Compound 105]	11.8 µM
